Tested on: mice bearing LNCaP xenografts
Assay: Biodistribution of 177Lu-labeled compounds
Type: in vivo
Protocol: 1.17 SPECT/CT Imaging, Biodistribution and Endoradiotherapy Studies
SPECT/CT imaging and biodistribution were performed using NOD-scid IL2Rgammanu^null (NSG) male mice, and the endoradiotherapy study was conducted using NOD.Cg-Rag1^tm1MomII2rg^tm1WjI/SzJ (NRG) male mice. The mice were maintained and the experiments were conducted in according to the guidelines established by the Canadian Council on Animal Care and approved by Animal Ethics Committee of the University of British Columbia. Mice were anesthetized by inhalation with 2% isoflurane in oxygen, and implanted subcutaneously with 1×10^7 LNCaP cells posterior to the left shoulder. Mice were used for studies when the tumor reached 5-8 mm in diameter 5-6 weeks after inoculation.
For biodistribution studies, the mice were injected with ^177Ludabeled PSMA-617 or HTK01169 (2-4 MBq) as described above. At predetermined time points (1, 4, 24, 72, or 120 h post-injection), the mice were euthanized by CO2 inhalation. Blood was withdrawn immediately from the heart, and the organs/tissues of interest were collected. The collected organs/tissues were weighed and counted using an automated gamma counter. For the blocking study, mice were co-injected with ^177Lu-HTK01169 (2-4 MBq) and 50 nmol of the non-radioactive standard, and organs/tissues of interest were collected at 4 h post-injection.

[1] = 4 h post-injection, blocking (co-injection of 50 nmol non-radioactive standard)

SMILES: O=C([O-])CN1CCN(CC(=O)[O-])CCN(CC(=O)NCCCC[C@H](NC(=O)[C@H](CCC(=O)O)NC(=O)CCCc2ccc(I)cc2)C(=O)NC[C@H]2CC[C@H](C(=O)N[C@@H](Cc3ccc4ccccc4c3)C(=O)NCCCC[C@H](NC(=O)N[C@@H](CCC(=O)O)C(=O)O)C(=O)O)CC2)CCN(CC(=O)[O-])CC1.[177Lu+3] [^177Lu-HTK01169]
- Adrenal glands uptake (1 h post-injection): 9.94 ± 2.10 % ID/g
- Blood uptake (1 h post-injection): 16.6 ± 1.85 % ID/g
- Bone uptake (1 h post-injection): 0.93 ± 0.31 % ID/g
- Brain uptake (1 h post-injection): 0.18 ± 0.07 % ID/g
- Fat uptake (1 h post-injection): 3.20 ± 1.03 % ID/g
- Heart uptake (1 h post-injection): 3.93 ± 0.95 % ID/g
- Intestine uptake (1 h post-injection): 1.64 ± 0.20 % ID/g
- Kidneys uptake (1 h post-injection): 51.1 ± 4.07 % ID/g
- Liver uptake (1 h post-injection): 2.55 ± 0.45 % ID/g
- Lung uptake (1 h post-injection): 7.11 ± 0.98 % ID/g
- Muscle uptake (1 h post-injection): 1.39 ± 0.12 % ID/g
- Pancreas uptake (1 h post-injection): 1.77 ± 0.24 % ID/g
- Seminal uptake (1 h post-injection): 1.02 ± 0.15 % ID/g
- Spleen uptake (1 h post-injection): 10.6 ± 4.07 % ID/g
- Stomach uptake (1 h post-injection): 0.50 ± 0.15 % ID/g
- Testes uptake (1 h post-injection): 2.14 ± 0.31 % ID/g
- Tumor uptake (1 h post-injection): 13.4 ± 3.26 % ID/g
- Tumor/blood ratio (1 h post-injection): 0.81 ± 0.18
- Tumor/kidney ratio (1 h post-injection): 0.26 ± 0.05
- Tumor/muscle ratio (1 h post-injection): 9.76 ± 2.65
- Adrenal glands uptake (4 h post-injection): 9.91 ± 2.55 % ID/g
- Blood uptake (4 h post-injection): 10.2 ± 1.40 % ID/g
- Bone uptake (4 h post-injection): 0.79 ± 0.30 % ID/g
- Brain uptake (4 h post-injection): 0.16 ± 0.01 % ID/g
- Fat uptake (4 h post-injection): 2.95 ± 0.81 % ID/g
- Heart uptake (4 h post-injection): 2.50 ± 0.54 % ID/g
- Intestine uptake (4 h post-injection): 1.25 ± 0.17 % ID/g
- Kidneys uptake (4 h post-injection): 85.7 ± 7.11 % ID/g
- Liver uptake (4 h post-injection): 1.97 ± 0.05 % ID/g
- Lung uptake (4 h post-injection): 5.92 ± 0.22 % ID/g
- Muscle uptake (4 h post-injection): 0.98 ± 0.06 % ID/g
- Pancreas uptake (4 h post-injection): 1.51 ± 0.28 % ID/g
- Seminal uptake (4 h post-injection): 1.07 ± 0.62 % ID/g
- Spleen uptake (4 h post-injection): 8.05 ± 3.62 % ID/g
- Stomach uptake (4 h post-injection): 0.57 ± 0.11 % ID/g
- Testes uptake (4 h post-injection): 1.91 ± 0.63 % ID/g
- Tumor/blood ratio (4 h post-injection): 2.71 ± 0.68
- Tumor/kidney ratio (4 h post-injection): 0.32 ± 0.07
- Tumor/muscle ratio (4 h post-injection): 28.0 ± 6.92
- Adrenal glands uptake [1]: 0.68 ± 0.24 % ID/g
- Blood uptake [1]: 0.96 ± 0.25 % ID/g
- Bone uptake [1]: 0.12 ± 0.04 % ID/g
- Brain uptake [1]: 0.03 ± 0.00 % ID/g
- Fat uptake [1]: 0.25 ± 0.13 % ID/g
- Heart uptake [1]: 0.41 ± 0.07 % ID/g
- Intestine uptake [1]: 0.25 ± 0.10 % ID/g
- Kidneys uptake [1]: 5.50±1.95 % ID/g
- Liver uptake [1]: 0.51 ± 0.08 % ID/g
- Lung uptake [1]: 0.89 ± 0.29 % ID/g
- Muscle uptake [1]: 0.12 ± 0.02 % ID/g
- Pancreas uptake [1]: 0.19 ± 0.02 % ID/g
- Seminal uptake [1]: 0.19 ± 0.13 % ID/g
- Spleen uptake [1]: 0.61 ± 0.17 % ID/g
- Stomach uptake [1]: 0.19 ± 0.10 % ID/g
- Testes uptake [1]: 0.58 ± 0.14 % ID/g
- Tumor uptake [1]: 1.70±0.28 % ID/g
- Tumor/blood ratio [1]: 1.81 ± 0.31
- Tumor/kidney ratio [1]: 0.32 ± 0.06
- Tumor/muscle ratio [1]: 13.7 ± 1.47
- Adrenal glands uptake (24 h post-injection): 4.53 ± 1.10 % ID/g
- Blood uptake (24 h post-injection): 2.10 ± 0.41 % ID/g
- Bone uptake (24 h post-injection): 0.26 ± 0.05 % ID/g
- Brain uptake (24 h post-injection): 0.06 ± 0.01 % ID/g
- Fat uptake (24 h post-injection): 2.06 ± 0.71 % ID/g
- Heart uptake (24 h post-injection): 0.83 ± 0.25 % ID/g
- Intestine uptake (24 h post-injection): 0.45 ± 0.13 % ID/g
- Kidneys uptake (24 h post-injection): 125 ± 16.4 % ID/g
- Liver uptake (24 h post-injection): 1.03 ± 0.22 % ID/g
- Lung uptake (24 h post-injection): 1.98 ± 0.44 % ID/g
- Muscle uptake (24 h post-injection): 0.39 ± 0.07 % ID/g
- Pancreas uptake (24 h post-injection): 0.59 ± 0.12 % ID/g
- Seminal uptake (24 h post-injection): 0.36 ± 0.13 % ID/g
- Spleen uptake (24 h post-injection): 3.70 ± 1.67 % ID/g
- Stomach uptake (24 h post-injection): 0.34 ± 0.12 % ID/g
- Testes uptake (24 h post-injection): 1.19 ± 0.23 % ID/g
- Tumor uptake (24 h post-injection): 55.9±12.5 % ID/g
- Tumor/blood ratio (24 h post-injection): 26.7 ± 2.79
- Tumor/kidney ratio (24 h post-injection): 0.45 ± 0.13
- Tumor/muscle ratio (24 h post-injection): 142 ± 14.4
- Adrenal glands uptake (72 h post-injection): 1.65 ± 0.46 % ID/g
- Blood uptake (72 h post-injection): 0.28 ± 0.10 % ID/g
- Bone uptake (72 h post-injection): 0.11 ± 0.03 % ID/g
- Brain uptake (72 h post-injection): 0.03 ± 0.00 % ID/g
- Fat uptake (72 h post-injection): 1.34 ± 0.72 % ID/g
- Heart uptake (72 h post-injection): 0.28 ± 0.04 % ID/g
- Intestine uptake (72 h post-injection): 0.13 ± 0.06 % ID/g
- Kidneys uptake (72 h post-injection): 37.8 ± 18.7 % ID/g
- Liver uptake (72 h post-injection): 0.46 ± 0.12 % ID/g
- Lung uptake (72 h post-injection): 0.51 ± 0.17 % ID/g
- Muscle uptake (72 h post-injection): 0.11 ± 0.02 % ID/g
- Pancreas uptake (72 h post-injection): 0.15 ± 0.02 % ID/g
- Seminal uptake (72 h post-injection): 0.12 ± 0.04 % ID/g
- Spleen uptake (72 h post-injection): 1.13 ± 0.32 % ID/g
- Stomach uptake (72 h post-injection): 0.17 ± 0.12 % ID/g
- Testes uptake (72 h post-injection): 0.62 ± 0.11 % ID/g
- Tumor uptake (72 h post-injection): 53.6 ± 8.06 % ID/g
- Tumor/blood ratio (72 h post-injection): 204 ± 63.5
- Tumor/kidney ratio (72 h post-injection): 1.63 ± 0.58
- Tumor/muscle ratio (72 h post-injection): 519 ± 91.5
- Adrenal glands uptake (120 h post-injection): 0.65 ± 0.21 % ID/g
- Blood uptake (120 h post-injection): 0.06 ± 0.03 % ID/g
- Bone uptake (120 h post-injection): 0.08 ± 0.01 % ID/g
- Brain uptake (120 h post-injection): 0.03 ± 0.00 % ID/g
- Fat uptake (120 h post-injection): 0.73 ± 0.13 % ID/g
- Heart uptake (120 h post-injection): 0.16 ± 0.07 % ID/g
- Intestine uptake (120 h post-injection): 0.10 ± 0.06 % ID/g
- Kidneys uptake (120 h post-injection): 8.63 ± 2.51 % ID/g
- Liver uptake (120 h post-injection): 0.34 ± 0.23 % ID/g
- Lung uptake (120 h post-injection): 0.17 ± 0.04 % ID/g
- Muscle uptake (120 h post-injection): 0.04 ± 0.01 % ID/g
- Pancreas uptake (120 h post-injection): 0.07 ± 0.02 % ID/g
- Seminal uptake (120 h post-injection): 0.08 ± 0.04 % ID/g
- Spleen uptake (120 h post-injection): 1.18 ± 0.55 % ID/g
- Stomach uptake (120 h post-injection): 0.21 ± 0.20 % ID/g
- Testes uptake (120 h post-injection): 0.40 ± 0.05 % ID/g
- Tumor uptake (120 h post-injection): 56.4±13.2 % ID/g
- Tumor/blood ratio (120 h post-injection): 1146 ± 722
- Tumor/kidney ratio (120 h post-injection): 7.12 ± 3.11
- Tumor/muscle ratio (120 h post-injection): 1708 ± 718
- fold higher peak tumor uptake than 177Lu-PSMA-617 (LNCaP tumor xenografts): 3.7 fold
- blood clearance (qualitative) (mouse, in vivo): relatively slower than ^177Lu-PSMA-617
- peaked tumor uptake (peak over 1-120 h): 55.9±12.5 % ID/g

From patent publication US20200339625A1, “NOVEL RADIOMETAL-BINDING COMPOUNDS FOR DIAGNOSIS OR TREATMENT OF PROSTATE SPECIFIC MEMBRANE ANTIGEN-EXPRESSING CANCER” (PROVINCIAL HEALTH SERVICES AUTHORITY, priority 2017, published 2020)
